Values after ≈ are worked out from the molar mass of the structure shown.
Assays:
pial artery [1] = format: in vivo, piglets
[2] = Solubility in cyclodextrin solutions (HPLC)
[3] = system: middle cerebral artery occlusion (MCAO); settings: mouse, in vivo
pial artery [4] = settings: pig, in vivo
cGMP = cGMP in CSF by ELISA (Example 1); format: in vivo, newborn pigs
[5] = SB203580 10 μM topical 30 min before salvinorin A
[6] = SP600125 1 μM topical 30 min before salvinorin A
[7] = U0126 1 mg/kg i.v. 30 min before salvinorin A
[8] = pretreatment 10 μg/kg i.v. 30 min before H/I

COC(=O)[C@@H]1C[C@H](OC(C)=O)C(=O)[C@H]2[C@@]1(C)CC[C@H]1C(=O)O[C@H](c3ccoc3)C[C@]21C [Salvinorin A]
preserved response to hypercapnia with SB203580 (pial artery [1]; [5]): No significant change in the preservative effects | preserved response to hypotension with SB203580 (pial artery [1]; [5]): no significantly changes | preserved response to hypercapnia with SP600125 (pial artery [1]; [6]): No significant change in the preservative effects | preserved response to hypotension with SP600125 (pial artery [1]; [6]): no significantly changes | preserved response to hypercapnia with U0126 (pial artery [1]; [7]): abolished by U0126 | preserved response to hypotension with U0126 (pial artery [1]; [7]): abolished by U0126 | pial artery dilation response to hypercapnia after hypoxia/ischemia (pial artery [1]; [8]): preserved the dilation response of pial artery to hypercapnia | pial artery dilation response to hypotension after hypoxia/ischemia (pial artery [1]; [8]): preserved the dilation response of pial artery to hypotension | solubility ([2]; 20% 2-hydroxypropyl-β-cyclodextrin (HPBCD) in water, aqueous with cosolvent or surfactant or cyclodextrin, thermodynamic from solid, Concentration (solubility), 20% HPBCD, mean ± SD): 122.5 ± 0.6 µg/mL (≈ 283 µM) | solubility ([2]; 20% 2-hydroxypropyl-β-cyclodextrin (HPBCD) in water, aqueous with cosolvent or surfactant or cyclodextrin, thermodynamic from solid, maximum concentration (solubility), HPBCD): > 100 µg/mL | solubility ([2]; 20% 2-hydroxypropyl-β-cyclodextrin (HPBCD) in water, aqueous with cosolvent or surfactant or cyclodextrin, thermodynamic from solid, solubility, 20% HPBCD): 122.5 ± 0.6 µg/mL (≈ 283 µM) | solubility ([2]; 20% 2-hydroxypropyl-γ-cyclodextrin (HPGCD) in water, aqueous with cosolvent or surfactant or cyclodextrin, thermodynamic from solid, Concentration (solubility), 20% HPGCD, mean ± SD): 52.6 ± 0.9 µg/mL (≈ 122 µM) | solubility ([2]; 20% 2-hydroxypropyl-γ-cyclodextrin (HPGCD) in water, aqueous with cosolvent or surfactant or cyclodextrin, thermodynamic from solid, solubility, 20% HPGCD): 52.6 ± 0.9 µg/mL (≈ 122 µM) | solubility ([2]; 20% α-cyclodextrin sulfated sodium salt in water, aqueous with cosolvent or surfactant or cyclodextrin, thermodynamic from solid, Concentration (solubility), 20% α-Cyclodextrin sulfated sodium salt, mean ± SD): 1 ± 0.1 µg/mL | solubility ([2]; 20% β-cyclodextrin sulfated sodium salt in water, aqueous with cosolvent or surfactant or cyclodextrin, thermodynamic from solid, Concentration (solubility), 20% β-Cyclodextrin sulfated sodium salt, mean ± SD): 1.5 ± 0.1 µg/mL | solubility ([2]; water and α- or β-cyclodextrin sulfated sodium salt): only minimally soluble | solubility ([2]; water, thermodynamic from solid, Concentration (solubility), 100% water, mean ± SD): 1 ± 0.1 µg/mL (≈ 2.31 µM) | blood brain barrier disruption and vascular leakage (Evans blue extravasation) [3]: reduced the disruption and leakage | infarct size (TTC stains) [3]: dose-dependent reduction | motor function, grip strength score [3]: dose-dependent improvements in motor function | neurobehavior [3]: dose-dependent improvements | overall motor function [3]: improves overall motor function | protective effect on leakage with norbinaltorphimine [3]: inhibited the protective effect of salvinorin A | blood pressure changes during administration (pial artery [4]): No significant blood pressure changes | dilation of constricted pial arteries (pial artery [4]): dilated pial arteries under elevated tone conditions | dilation of pial artery (pial artery [4]): dose dependently (10 nM, 1 μM) dilated the pial artery | dilation response in presence of L-NNA (pial artery [4]): abolished by L-NNA | dilation response in presence of glibenclamide (pial artery [4]): blocked the dilation effects of salvinorin A | dilation response in presence of naloxone (pial artery [4]): blocked the dilation effects | dilation response in presence of norbinaltorphimine (pial artery [4]): blocked the dilation effects | dilation response in presence of sulpiride (pial artery [4]): had no effect on the dilation response | dilation with repeated administration (pial artery [4]): sustained dilation effects was observed | cGMP in CSF (cGMP; 10 min after administration): elevated cGMP in CSF | cGMP in CSF in presence of L-NNA (cGMP; L-NNA pretreatment): L-NNA blocked the elevation of the cGMP | cGMP in CSF in presence of norbinaltorphimine (cGMP; norbinaltorphimine pretreatment, 10 nM and 1 μM): Norbinaltorphimine blocked the elevation of cGMP

Source: patent US11000505B2 (priority 2010, dated 2021)
